# From US6054556A, “Melanocortin receptor antagonists and agonists” (The Arizona Board of Regents on Behalf of the University of …, priority 1997, dated 2000)
# Entries after “also recorded” stand apart in the source; their conditions may differ. Where a SMILES comes first, the peptide text is derived from it. Bridges are numbered along the chain shown (N, C = ends). [ ]: non-standard residue; d: D form. 2Nal = N[C@@H](Cc1ccc2ccccc2c1)C(=O)O; d2Nal = N[C@H](Cc1ccc2ccccc2c1)C(=O)O; Nle = CCCC[C@H](N)C(=O)O
# What was measured:
# Type in all cases: cell-based
# frog (Rana pipiens) skin = experiment: Frog skin bioassay (skin darkening, photoreflectance); conditions: for Frog Skin: agonist/antagonist activity: melanin dispersion vs α-MSH
# Method: Bioassays were performed on frog (Rana pipiens) skin according to published protocols [see J. Med. Chem. 30:2126 (1987) and Gen. Comp. Endocrinol. 55:104 (1984)]. Briefly, in these assays the darkening of skin due to dispersion of melanin granules within the melanocytes in response to the melanotropin peptides according to the present invention is measured by photoreflectance methods. The agonist potency of each peptide was determined from the dose response curves comparing the skin darkening with that produced by the native hormone, α-MSH. Prolongation of the biological response was measured by continued monitoring of the melanosome dispersion for up to 3 hours following removal of the peptide in the bathing solution through washing of the skins. The antagonistic activity profile was measured by pre-incubating the skins for 1 hour in various concentrations of the antagonist. After pre-incubation, a known concentration of α-MSH was added and its melanotropic activity determined. Dose-response curves generated for α-MSH in this manner were used to determine the pA2 values (representing the -log10 of the average molar concentration of the antagonist that will reduce the response of α-MSH (agonist) from 2X units to X units) [see Br. J. Pharmacol. 2:189 (1947)].
# mMC5-R = target: T1, mMC5-R (Mus musculus, UniProt P41149); experiment: cAMP-dependent pCRE/β-galactosidase reporter assay in Clonal 293 cells expressing mouse MC5-R; conditions: for mMC5-R: agonist/antagonist activity: cAMP/β-galactosidase
# T1 construct: expressed in transfected cells
# Method: Transduction was measured by its affect on cAMP production using the following method.
# (§1) 4 μg of pCRE/β-galactosidase DNA was used for transfection of a 10 cm dish of cells. After 15 to 24 hours post-transfection, cells were split into 96-well plates with 20,000 to 30,000 cells per well, and incubated at 37° C. in a 5% CO2 incubator until 48 hours post-transfection.Cells were then stimulated with different peptides diluted in stimulation medium (Dulbecco's modified Eagle's medium containing 0.1 mg/ml bovine serum albumin and 0.1 mM isobutylmethylxanthine) for 6 hours. Agonist activity was measured by stimulating cells with various concentrations of peptide, and antagonist activity was measured by stimulating MC3 and MC4 receptor cell lines with […]. After stimulation, cells were lysed in 50 μl lysis buffer (250 mM Tris-HCl, pH 8.0, 0.1% Triton X-100), frozen and thawed, and then assayed for b-galactosidase activity.
# hMC4-R = target: T2, hMC4-R (Homo sapiens, UniProt P32245); experiment: cAMP-dependent pCRE/β-galactosidase reporter assay in Clonal 293 cells expressing human MC4-R; conditions: for hMC4-R: agonist/antagonist activity: cAMP/β-galactosidase
# T2 construct: expressed in transfected cells
# Method: (§2) The peptides according to the present invention were assayed for agonist and antagonist activity using cloned hMC1, mMC1-R, hMC3-R, hMC4-R and mMC5-R transfected into the stable cell line Clonal 293. Transduction was measured by its affect on cAMP production using the following method.
# as §1, with “Clonal 293 cell lines expressing the human MSH receptor, human MC3-R, human MC4-R, and mouse MC5-R were transfected with a pCRE/β-galactosidase construct using a CaPO4 method [see Mol. Cell. Biol. 7:2745 (1987)]. 4 μg” for “4 μg”
# hMC3-R = target: T3, hMC3-R (Homo sapiens, UniProt P41968); experiment: cAMP-dependent pCRE/β-galactosidase reporter assay in Clonal 293 cells expressing human MC3-R; conditions: for hMC3-R: agonist/antagonist activity: cAMP/β-galactosidase
# T3 construct: expressed in transfected cells
# Method: as §2
# as §1, with “Clonal 293 cell lines expressing the human MSH receptor, human MC3-R, human MC4-R, and mouse MC5-R were transfected with a pCRE/β-galactosidase construct using a CaPO4 method [see Mol. Cell. Biol. 7:2745 (1987)]. 4 μg” for “4 μg”
# T2 sequence (P32245 whole entry): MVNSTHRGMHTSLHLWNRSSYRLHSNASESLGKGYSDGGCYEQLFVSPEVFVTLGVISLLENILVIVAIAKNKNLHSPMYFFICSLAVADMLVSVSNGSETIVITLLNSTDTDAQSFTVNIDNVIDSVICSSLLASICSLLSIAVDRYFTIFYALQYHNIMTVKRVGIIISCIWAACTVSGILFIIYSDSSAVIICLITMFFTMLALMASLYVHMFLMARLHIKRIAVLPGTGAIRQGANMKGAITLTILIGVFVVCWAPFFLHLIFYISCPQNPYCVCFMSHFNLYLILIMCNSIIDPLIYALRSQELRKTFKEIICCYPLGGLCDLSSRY
# T1 sequence (P41149 whole entry): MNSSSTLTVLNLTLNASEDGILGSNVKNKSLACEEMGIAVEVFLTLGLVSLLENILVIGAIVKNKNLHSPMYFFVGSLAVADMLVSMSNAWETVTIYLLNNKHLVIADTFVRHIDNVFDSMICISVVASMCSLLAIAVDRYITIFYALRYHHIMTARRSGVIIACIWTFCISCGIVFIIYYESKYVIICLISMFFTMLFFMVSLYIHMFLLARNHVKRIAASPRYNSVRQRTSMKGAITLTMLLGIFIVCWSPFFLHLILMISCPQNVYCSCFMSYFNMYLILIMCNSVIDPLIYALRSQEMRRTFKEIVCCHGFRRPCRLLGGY
# T3 sequence (P41968 whole entry): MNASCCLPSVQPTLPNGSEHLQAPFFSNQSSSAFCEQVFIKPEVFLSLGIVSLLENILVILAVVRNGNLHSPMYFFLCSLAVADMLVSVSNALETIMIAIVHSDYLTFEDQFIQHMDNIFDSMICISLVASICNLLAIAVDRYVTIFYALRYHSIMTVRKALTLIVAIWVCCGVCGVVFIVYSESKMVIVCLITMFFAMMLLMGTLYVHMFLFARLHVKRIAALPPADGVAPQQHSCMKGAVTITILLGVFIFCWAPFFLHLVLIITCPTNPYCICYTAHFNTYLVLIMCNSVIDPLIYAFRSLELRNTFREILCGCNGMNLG
molecule,measurement,setting,value
"CCCC[C@H](NC(C)=O)C(=O)N[C@H]1CC(=O)NCCCC[C@@H](C(N)=O)NC(=O)[C@H](Cc2ccc3ccccc3c2)NC(=O)[C@H](CCCNC(=N)N)NC(=O)[C@@H](Cc2ccc3ccccc3c2)NC(=O)[C@H](Cc2c[nH]c3ccccc23)NC1=O [Compound 1, Ac-Nle-c[Asp-Trp-D-Nal(2')-Arg-Nal(2')-Lys]-NH2] (Ac-[Nle]DW[d2Nal]R[2Nal]K-NH2; lactam 2-7)",Frog Skin: reversibility of antagonism,frog (Rana pipiens) skin,Irreversible
same,Frog Skin: agonist/antagonist activity,frog (Rana pipiens) skin,Antagonist
"CCCC[C@H](NC(C)=O)C(=O)N[C@H]1CC(=O)NCCCC[C@@H](C(N)=O)NC(=O)[C@H](Cc2ccc3ccccc3c2)NC(=O)[C@H](CCCNC(=N)N)NC(=O)[C@@H](Cc2ccccc2)NC(=O)[C@H](Cc2c[nH]c3ccccc23)NC1=O [Compound 10, Ac-Nle-c[Asp-Trp-D-Phe-Arg-Nal(2')-Lys]-NH2] (Ac-[Nle]DW[dF]R[2Nal]K-NH2; lactam 2-7)",Frog Skin: agonist/antagonist activity,frog (Rana pipiens) skin,potent agonist; also recorded: Full Agonist
"CCCC[C@H](NC(C)=O)C(=O)N[C@H]1CC(=O)NCCCC[C@@H](C(N)=O)NC(=O)[C@H](Cc2ccc3ccccc3c2)NC(=O)[C@H](CCCNC(=N)N)NC(=O)[C@@H](Cc2ccc3ccccc3c2)NC(=O)[C@H](Cc2c[nH]cn2)NC1=O [Compound 11, Ac-Nle-c[Asp-His-D-Nal(2')-Arg-Nal(2')-Lys]-NH2]",Frog Skin: agonist/antagonist activity,frog (Rana pipiens) skin,Antagonist -- Partial
"CCCC[C@H](NC(C)=O)C(=O)N[C@H]1CC(=O)NCCCC[C@@H](C(N)=O)NC(=O)[C@H](Cc2c[nH]c3ccccc23)NC(=O)[C@H](CCCC)NC(=O)[C@@H](Cc2ccc3ccccc3c2)NC(=O)[C@H](Cc2c[nH]cn2)NC1=O [Compound 13, Ac-Nle-c[Asp-His-D-Nal(2')-Nle-Trp-Lys]-NH2]",Frog Skin: agonist/antagonist activity,frog (Rana pipiens) skin,Agonist
"CCCC[C@H](NC(C)=O)C(=O)N[C@H]1CC(=O)NCCCC[C@@H](C(N)=O)NC(=O)[C@H](Cc2c[nH]c3ccccc23)NC(=O)[C@H](CCCC)NC(=O)[C@@H](Cc2ccc3ccccc3c2)NC(=O)[C@H](Cc2c[nH]c3ccccc23)NC1=O [Compound 14, Ac-Nle-c[Asp-Trp-D-Nal(2')-Nle-Trp-Lys]-NH2] (Ac-[Nle]DW[d2Nal][Nle]WK-NH2; lactam 2-7)",Frog Skin: agonist/antagonist activity,frog (Rana pipiens) skin,Antagonist
"CCCC[C@H](NC(C)=O)C(=O)N[C@H]1CC(=O)NCCCC[C@@H](C(N)=O)NC(=O)[C@H](Cc2c[nH]c3ccccc23)NC(=O)[C@H](Cc2ccc3ccccc3c2)NC(=O)[C@@H](Cc2ccccc2)NC(=O)[C@H](Cc2c[nH]cn2)NC1=O [Compound 15, Ac-Nle-c[Asp-His-D-Phe-Nal(2')-Trp-Lys]-NH2]",Frog Skin: agonist/antagonist activity,frog (Rana pipiens) skin,Agonism
"CCCC[C@H](NC(C)=O)C(=O)N[C@H]1CC(=O)NCCCC[C@@H](C(N)=O)NC(=O)[C@@H](Cc2ccc3ccccc3c2)NC(=O)[C@H](CCCNC(=N)N)NC(=O)[C@@H](Cc2ccc3ccccc3c2)NC(=O)[C@H](Cc2c[nH]cn2)NC1=O [Compound 16, Ac-Nle-c[Asp-His-D-Nal(2')-Arg-D-Nal(2')-Lys]-NH2]",Frog Skin: agonist/antagonist activity,frog (Rana pipiens) skin,Agonism
Ac-Nle-c[Asp-His(1-Me)-D-Nal(2')-Arg-Nal(2')-Lys]-NH2 [Compound 5],mMC5-R: potency range,mMC5-R,pM range
same,mMC5-R: agonist/antagonist activity,mMC5-R,Antagonist
same,Frog Skin: reversibility of antagonism,frog (Rana pipiens) skin,Irreversible
same,Frog Skin: agonist/antagonist activity,frog (Rana pipiens) skin,Antagonist
same,hMC4-R: potency range,hMC4-R,nM range
same,hMC4-R: agonist/antagonist activity,hMC4-R,Antagonist
same,hMC3-R: potency range,hMC3-R,nM range
same,hMC3-R: agonist/antagonist activity,hMC3-R,Antagonist
Ac-Nle-c[Asp-His(1-Me)-D-Nal(2')-Arg-Trp-Lys]-NH2 [Compound 2],mMC5-R: potency range,mMC5-R,pM range
same,mMC5-R: agonist/antagonist activity,mMC5-R,Antagonist
same,Frog Skin: reversibility of antagonism,frog (Rana pipiens) skin,Irreversible
same,Frog Skin: agonist/antagonist activity,frog (Rana pipiens) skin,Antagonist
same,hMC4-R: potency range,hMC4-R,nM range
same,hMC4-R: agonist/antagonist activity,hMC4-R,Antagonist
same,hMC3-R: potency range,hMC3-R,nM range
same,hMC3-R: agonist/antagonist activity,hMC3-R,Antagonist
Ac-Nle-c[Asp-His(3-Me)-D-Nal(2')-Arg-Nal(2')-Lys]-NH2 [Compound 6],mMC5-R: potency range,mMC5-R,pM range
same,mMC5-R: agonist/antagonist activity,mMC5-R,Antagonist
same,Frog Skin: reversibility of antagonism,frog (Rana pipiens) skin,Irreversible
same,Frog Skin: agonist/antagonist activity,frog (Rana pipiens) skin,Antagonist
same,hMC4-R: potency range,hMC4-R,nM range
same,hMC4-R: agonist/antagonist activity,hMC4-R,Antagonist
same,hMC3-R: potency range,hMC3-R,nM range
same,hMC3-R: agonist/antagonist activity,hMC3-R,Antagonist
Ac-Nle-c[Asp-His(3-Me)-D-Nal(2')-Arg-Trp-Lys]-NH2 [Compound 3],mMC5-R: potency range,mMC5-R,pM range
same,mMC5-R: agonist/antagonist activity,mMC5-R,Antagonist
same,Frog Skin: reversibility of antagonism,frog (Rana pipiens) skin,Irreversible
same,Frog Skin: agonist/antagonist activity,frog (Rana pipiens) skin,Antagonist
same,hMC4-R: potency range,hMC4-R,nM range
same,hMC4-R: agonist/antagonist activity,hMC4-R,Antagonist
same,hMC3-R: potency range,hMC3-R,nM range
same,hMC3-R: agonist/antagonist activity,hMC3-R,Antagonist
